Measurements reported in patent US10898476B2, “Heat shock proteins and cholesterol homeostasis” (Orphazyme A/S, priority 2016, dated 2021).

Tests used:
[1] = system: primary human macrophage foam cells; experiment: Cholesterol efflux from acLDL-loaded macrophage foam cells to complete medium, lipids by TLC; assay type: cell-based
Protocol: FIG. 1 rHSP70 stimulates the removal of cholesterol from primary human macrophage foam cells. Differentiated human macrophages were loaded with acLDL (50 μg/mL) for 3 days. Cholesterol efflux was performed for 12 h to complete medium in the presence or absence of rHSP70 (20 ug/ml). Lipids were analyzed by TLC. Pooled data from 8 blood donors from 8 independent experiments and three technical replicates, mean±SEM.
FIG. 3 The effect of rHsp70 dose and BMP binding on cholesterol efflux from primary human macrophage foam cells. Macrophages were loaded with acLDL followed by cholesterol efflux to complete medium in the absence or presence of rHSP70 as in FIG. 1. Either wild-type or W90F mutant (mut) rHsp70 was employed at the final concentrations of 20 or 200 μg/mL Pooled data from 2 individual donors with 3 technical replicates, mean±SEM.
Human primary white blood cells, isolated from healthy blood donors were acquired form the Finnish Red Cross (permit number 21/2015). Peripheral blood mononuclear cells (PBMCs) were isolated by Ficoll layering (Boyum, A., 1964) with Ficoll-Paque Premium (GE Healthcare). […]
Cells were harvested in 2% NaCl solution and lipids were extracted as described in Bligh and Dyer (1959). […] The TLC plate was charred and free cholesterol and cholesterol ester bands were quantitated using ImageJ. […]

ABCA1 [2] = experiment: ABCA1 mRNA levels by qRT-PCR in macrophage foam cells; assay type: cell-based, human; conditions: during cholesterol loading and efflux; normalized to 18S mRNA; FIG. 2a
Protocol: (§1) FIG. 2 Effect of rHsp70 on ABCA1 transcript and protein levels in primary human macrophage foam cells. Macrophages were loaded with acLDL followed by cholesterol efflux to complete medium in the absence or presence of rHSP70. (a) The ABCA1 mRNA levels were measured by qRT-PCR. Data are mean±SEM, n=6 blood donors with triplicate measurements. (b) Cells were harvested and equal amounts of protein separated by SDS-PAGE and analyzed by Western blotting using a polyclonal anti-ABCA1 antibody. ProAct staining was used as a loading control. Data are mean±SEM, n=7 blood donors.
(§2) Cells were collected in PBS and centrifuged at 2000 rpm for 10 min at 4° C. Cell pellets were lysed in either RNA lysis buffer or in RIPA buffer containing protease inhibitors for transcript or protein analysis.
Total RNA was isolated using NucleoSpin RNA isolation kit (Macherey-Nagel). 1.5 μg of total RNA was transcribed using SuperScript VILO cDNA synthesis kit (Invitrogen). abca1 primers Fwd 5′-[…], Rev 5′-[…] (Sigma) and 18S primers Fwd 5′-[…], Rev 5′-CCCCGCGAGCACAGA (Sigma) were used for qRT-PCR with Light Cycler 480 SYBER Green I Master Mix (Roche). Reaction mixtures were prepared according to the manufacturer's instructions. Reaction steps: 95° C. 15 min and 40 cycles of 95° C. 15 sec, 60° C. 30 sec and 72° C. 10 sec. […] Relative quantities of mRNAs were normalized to 18S mRNA.

ABCA1 [3] = experiment: ABCA1 protein levels by Western blotting in macrophage foam cells; assay type: cell-based, human; conditions: during cholesterol loading and efflux; FIG. 2b
Protocol: as §1, §2
Protein lysates were cleared by centrifugation at 12000 rpm for 10 min at 4° C. Protein concentration was determined using the Bio-Rad protein assay kit. Equal amount of total protein was loaded on 8% SDS-polyacrylamide gel and Western blotting was performed using polyclonal anti-ABCA1 antibody (1:500, Novus Biologicals). The primary antibody was detected with anti-rabbit secondary antibody (1:2000, Sigma). The blots were developed using the Enhanced Chemiluminiscense kit (Amersham). Protein bands were normalized to Proact membrane stain (Amresco). Quantitation of protein bands was performed using ImageJ program.

[4] = system: primary murine bone marrow macrophage foam cells; experiment: BODIPY-cholesterol efflux to 6% HDL enriched serum, confocal imaging; assay type: cell-based; conditions: 24 h efflux to 6% HDL enriched serum; FIG. 4
Protocol: FIG. 4 rHSP70 speeds up BODIPY-cholesterol efflux from primary murine macrophage foam cells. Primary murine bone marrow macrophage foam cells were incubated with BODIPYcholesteryl linoleate-LDL particles. Cholesterol efflux was performed for 24 h to 6% HDL enriched serum in the presence or absence of rHSP70. Images were taken using Leica SP8 scanning confocal microscope at the indicated time points. (a) Total cell BODIPY-cholesterol intensity changes were calculated using ImageJ and data normalized to 0 h. (b) Representative images of BODIPY-cholesterol intensity changes over time. n=60-100 cells/condition. *: p<0.05.
rHSP70 speeds up BODIPY-cholesterol efflux from primarymurine macrophage foam cells. Primary murine bone marrow macrophage foam cells were incubated with BODIPYcholesteryl linoleate-LDL particles. Cholesterol efflux was performed for 24 h to 6% HDL enriched serum in the presence or absence of rHSP70.

[5] = system: LXR targets such as ABCA1, FABP4 and GRAMD1A; experiment: RNA sequencing of LXR targets in macrophage foam cells; assay type: cell-based, human; conditions: during cholesterol efflux; 4 blood donors; FIG. 5
Protocol: FIG. 5 The effect of rHSP70 on transcript levels of selected LXR targets in primary human macrophage foam cells. Macrophage foam cells from 4 individual blood donors were incubated −/+rHSP70 during cholesterol efflux and RNAs were extracted. RNA sequencing was performed by Illumina NextSeq sequencer. RNASeq results were analysed using “Gene Set Enrichment Analysis”. Selected LXR pathway targets modulated by rHSP70 administration were plotted against their transcript count numbers. Front row: FABP4; middle row: GRAMD1A; back row: ABCA1.
(§3) Effect of rHsp70 on the transcript and protein levels of LXR targets in primary human macrophage foam cellsMacrophage foam cells from 4 individual blood donors were incubated −/+rHSP70 during cholesterol efflux and RNAs were extracted. RNA sequencing was performed by Illumina NextSeq sequencer. RNASeq results were analysed using “Gene Set Enrichment Analysis”.

[6] = system: LXR targets (ABCA1, GRAMD1A, FABP4); experiment: Western blotting of LXR targets in macrophage foam cells; assay type: cell-based, human; conditions: during cholesterol efflux; FIG. 6
From the text: FIG. 6 The effect of rHSP70 on protein levels of selected LXR targets in primary human macrophage foam cells. Cells (as described for FIG. 5) were harvested and equal amounts of protein separated by SDS-PAGE and analyzed by Western blotting. Data are mean±SEM, n=7 blood donors. *: p<0.05; **: p<0.01. (a) ABCA1, (b) GRAMD1A, (c) FABP4.
as §3

[7] = system: acid sphingomyelinase (ASMase); conditions: via binding to bismonoacylglycerophosphate (BMP); Mahalka et al, 2014; cited from earlier work

rHSP70: His-tagged recombinant wildtype Hsp70 supplied by Orphazyme ApS, Denmark
cholesterol removal (efflux) from foam cells ([1]; 20 ug/ml, 16 h pretreatment during loading, then 12 h efflux to complete medium (RPMI, 10% FBS), FIG. 1, FIG. 3): significantly enhanced | whether a higher dosage improves the cholesterol efflux promoting effect ([1]; 200 ug/ml compared with 20 ug/ml, before and during 12 h efflux, FIG. 3): found not to be the case | ABCA1 transcript level (ABCA1 [2]): significant increase | ABCA1 protein level (ABCA1 [3]): significant increase | BODIPY-cholesterol efflux [4]: speeds up | transcript levels of LXR targets [5]: major transcriptional re-programming | protein levels of LXR targets [6]: These changes can also be seen at the protein level | activity of acid sphingomyelinase (ASMase) [7]: stabilize and enhance
